Where two headings read alike, the source gives them in different places.
Legend:
Format in all cases: cell-based
[1] = test system: Escherichia coli (E. coli—ATCC #8739); experiment: Synergy test, microtiter plate high resolution MIC assay, bacterium; details: Escherichia coli, ATCC8739, 24 h, read-out: MIC of component acting alone (QA / QB)
How it was run: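 Synergy against Escherichia coli ATCC #8739 was assessed in standard microtiter plates with M9GY medium, a minimal salt medium supplemented with 0.2% glucose and 0.1% yeast extract. The inoculum was about 5×10^6 bacteria per mL. MICs for each agent alone and in mixtures were combined into a synergy index, Qa/QA+Qb/QB.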

[2] = test system: Pseudomonas aeruginosa (P. aeruginosa—ATCC #15442); experiment: as above; details: for MIC: Pseudomonas aeruginosa
How it was run: (§1)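 Broth microdilution MICs (PDB for C. albicans and A. niger, 5×10^5 fungi/mL; TSB or M9GY for P. aeruginosa, ~5×10^6 bacteria/mL), combinations across 2–10,000 ppm active.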

[3] = test system: Candida albicans (C. albicans—ATCC 10231); experiment: Synergy test, microtiter plate high resolution MIC assay, yeast; details: for MIC: Candida albicans
How it was run: as §1

[4] = test system: Aspergillus niger (A. niger—ATCC 16404); experiment: Synergy test, microtiter plate high resolution MIC assay, mold; details: for MIC: Aspergillus niger; for SI (calculated synergy index): A. niger 16404, PDB
How it was run: as §1

## Cn1sccc1=O [2-methyl-3-isothiazolone, 2-methyl-4-isothiazolin-3-one]
[1]
  MIC: 30 µg/mL
[2]; P. aeruginosa 15442, M9GY, 48 hours
  MIC of component acting alone (QA / QB): 30 ppm
[2]; ATCC15442, 24 h, read-out: MIC of component acting alone (QA / QB), P. aeruginosa 15442, TSB, 24 hours
  MIC: 50 µg/mL
[2]; ATCC15442, 48 h, read-out: MIC of component acting alone (QA / QB), P. aeruginosa 15442, M9GY, 48 hours
  MIC: 20 µg/mL
[2]; ATCC15442, 48 h, read-out: MIC of component acting alone (QA / QB), P. aeruginosa 15442, TSB, 48 hours
  MIC: 60 µg/mL
[2]; ATCC15442, 48 h, read-out: Qa: end-point activity (MIC) of MI in the mixture (MI alone, QA, where Qb = 0), Table 5, P. aeruginosa 15442, M9GY, 48 hours, B = Linoleamidopropyl PG-dimonium chloride phosphate
  MIC: 30 µg/mL
[2]; ATCC15442, 48 h, read-out: Qa: end-point activity (MIC) of MI in the mixture (MI alone, QA, where Qb = 0), Table 5, P. aeruginosa 15442, TSB, 48 hours, B = Linoleamidopropyl PG-dimonium chloride phosphate
  MIC: 80 µg/mL
[2]; ATCC15442, 48 h, read-out: Qa: end-point activity (MIC) of MI in the mixture (MI alone, QA, where Qb = 0), Table 6, P. aeruginosa 15442, TSB, 48 hours, B = Cocamidopropyl PG-dimonium chloride phosphate
  MIC: 80 µg/mL
[2]; ATCC15442, 72 h, read-out: MIC of component acting alone (QA / QB), P. aeruginosa 15442, TSB, 72 hours
  MIC: 70 µg/mL
[2]; ATCC15442, 72 h, read-out: Qa: end-point activity (MIC) of MI in the mixture (MI alone, QA, where Qb = 0), Table 6, P. aeruginosa 15442, M9GY, 72 hours, B = Cocamidopropyl PG-dimonium chloride phosphate
  MIC: 30 µg/mL
[2]; Table 5, P. aeruginosa 15442, M9GY, 48 hours
  SI (calculated synergy index): 1.00
[2]; Table 5, P. aeruginosa 15442, TSB, 48 hours
  SI (calculated synergy index): 1.00
[2]; Table 6, P. aeruginosa 15442, M9GY, 72 hours
  SI (calculated synergy index): 1.00
[2]; Table 6, P. aeruginosa 15442, TSB, 48 hours
  SI (calculated synergy index): 1.00
[3]; ATCC10231, 24 h, read-out: MIC of component acting alone (QA / QB)
  MIC: 200 µg/mL
[3]; ATCC10231, 24 h, read-out: Qa: end-point activity (MIC) of MI in the mixture (MI alone, QA, where Qb = 0)
  MIC: 125 µg/mL
[3]; ATCC10231, 48 h, read-out: MIC of component acting alone (QA / QB)
  MIC: 200 µg/mL
[3]; ATCC10231, 72 h, read-out: MIC of component acting alone (QA / QB)
  MIC: 200 µg/mL
[3]; Table 5, C. albicans 10231, PDB, 24 hours
  SI (calculated synergy index): 1.00
[3]; Table 6, C. albicans 10231, PDB, 24 hours
  SI (calculated synergy index): 1.00
[3]; Table 6, C. albicans 10231, PDB, 24 hours, B = Cocamidopropyl PG-dimonium chloride phosphate
  Qa: end-point activity (MIC) of MI in the mixture (MI alone, QA, where Qb = 0): 125 ppm
[4]; ATCC16404, 96 h, read-out: MIC of component acting alone (QA / QB)
  MIC: 400 µg/mL
[4]; ATCC16404, 96 h, read-out: Qa: end-point activity (MIC) of MI in the mixture (MI alone, QA, where Qb = 0)
  MIC: 400 µg/mL
[4]; ATCC16404, 168 h, read-out: MIC of component acting alone (QA / QB)
  MIC: 500 µg/mL
[4]; ATCC16404, 168 h, read-out: Qa: end-point activity (MIC) of MI in the mixture (MI alone, QA, where Qb = 0)
  MIC: 400 µg/mL
[4]; Table 5, 7 days
  SI (calculated synergy index): 1.00
[4]; Table 6, 4 days
  SI (calculated synergy index): 1.00
